The test system of this test is M. tuberculosis. The experiment in a line: Antibacterial activity against tuberculosis bacteria, resazurin (REMA) MIC50. The format is cell-based. The note with it: Mycobacterium tuberculosis.

≈ marks a conversion by molar mass, not a printed value. Where two headings read alike, the source gives them in different places.

What is called MIC50 is the lowest concentration that inhibits either 50% of growth or 50% of the strains tested, depending on the study. In the case of `C/C=C(\NC(=O)c1csc(-c2csc(-c3ccc4c(n3)-c3csc(n3)[C@H]([C@@H](C)O)NC(=O)c3csc(n3)[C@H](C(C)C)NC(=O)c3csc(n3)/C(=C/C)NC(=O)[C@H]([C@@H](C)O)NC(=O)c3csc-4n3)n2)n1)C(=O)NCC(C)=O` [Micrococcin P2], the MIC50 runs as follows: (Extensively Drug Resistant #3 (XDR-3), read-out: MIC50) 0.375 µM (≈ 0.428 µg/mL); (Extensively Drug Resistant #4 (XDR-4), read-out: MIC50) 0.094 µM (≈ 0.107 µg/mL); (Extensively Drug Resistant #5 (XDR-5), read-out: MIC50) 0.114 µM (≈ 0.13 µg/mL); (Extensively Drug Resistant #6 (XDR-6), read-out: MIC50) 0.722 µM (≈ 0.825 µg/mL); (Extensively Drug Resistant #10 (XDR-7)) 0.209 µM (≈ 0.239 µg/mL); (Multi Drug Resistant isolate #3 (MDR-3), read-out: MIC50) 0.073 µM (≈ 0.0834 µg/mL). The MIC50 by setting is: (Multi Drug Resistant isolate #4 (MDR-4), read-out: MIC50) 0.169 µM (≈ 0.193 µg/mL); (Multi Drug Resistant isolate #11 (MDR-11), read-out: MIC50) 0.051 µM (≈ 0.0583 µg/mL); (Multi Drug Resistant isolate #20 (MDR-20), read-out: MIC50) 2.3 µM (≈ 2.63 µg/mL); (Multi Drug Resistant isolate #21 (MDR-21), read-out: MIC50) 0.044 µM (≈ 0.0503 µg/mL); (Multi Drug Resistant isolate #30 (MDR-30), read-out: MIC50) 0.304 µM (≈ 0.347 µg/mL).

For the origin of these results see patent US20240277800A1, “PHARMACEUTICAL COMPOSITION COMPRISING MACROCOSINE COMPOUND AND METHOD FOR PREPARING MACROCOSINE COMPOUND” (priority 2021, published 2024).
